Measured values: patent US6197575A, “Vascularized perfused microtissue/micro-organ arrays” (Massachusetts Institute of Technology, priority 1999, dated 2001)

What was measured:
cells = conditions: tethered to silicon substrates; cited from earlier work
P450 1A1 = experiment: EROD assay (7-ethoxyresorufin O-dealkylation) in perfused bioreactor chip of hepatocytes and endothelial cells; type: cell-based, rat
Protocol: Bioreactor constructs using an assay that measures the activity of one representative P450 isozyme, cytochrome P450 1A1, was evaluated. This enzyme is present in all mammalian species and is highly inducible by polycyclic aromatic hydrocarbons as well as other agents. 7-Ethoxyresorufin is a selective substrate of rat P450 1A1 which catalyzes its de-ethylation to the highly fluorescent resorufin. Subsequent to P450 1A1 catalyzed de-ethylation, resorufin can be exported from the cell or undergo phase II conjugation. There are two possible phase II conjugation products resulting from the enzyme catalyzed addition of sulfate or glucoronic acid to the 7-hydroxyl group of resorufin. Thus, from this assay one can quantitatively determine the activity of P450 1A1 and the phase II conjugation enzymes. […]
The 7-ethoxyresorufin O-dealkylation (EROD) assay involved dissolving the substrate into the chemically defined media (final concentration of 10-20 μM) and perfusing it through the tissue array. The effluent was collected in sequential fractions which then were analyzed by fluorescence detection for the presence of resorufin. Total conversion within each fraction was determined by incubating an aliquot from the fraction with enzymes that hydrolyze the phase II conjugates of resorufin back to the free alcohol. […]

Compound: Tethered EGF: epidermal growth factor (EGF) tethered to silicon substrates
- biological activity after tethering (cells): retained full biological activity
- stimulation of cells (cells): stimulate cells in a dose-dependent manner

Compound: O=c1cc(-c2ccccc2)oc2c1ccc1ccccc12 [naphthoflavone]
- enzyme activity (resorufin formation) in presence and after removal of inhibitor (P450 1A1; 20 μM inhibitor with 10 μM ethoxyresorufin, t=240-385 min): inhibited by the inclusion of a reversible inhibitor to the media and then recovered when the inhibitor was removed

Compound: Cc1ccc2cc3c(ccc4ccccc43)c3c2c1CC3 [3-methylcholanthrene]
- increase in absolute level of resorufin formation (P450 1A1; bioreactor treated for final 24 hours in static culture, attomoles resorufin formed per minute per hepatocyte): approximately five
